Values after ≈ are worked out from the molar mass of the structure shown.
Legend:
[1] = molecular target: T1, human PAFR (Homo sapiens, UniProt P25105); assay: cellular HTRF IP1 endpoint assay: inhibition of PAFR activation by PAF C-16 ligand; type: cell-based; conditions: HEK293 cells overexpressing human PAFR; PAF ligand 11 nM
T1 construct: expressed in transfected cells; host or cells: HEK293
Description: The ability of compounds of formula (I.0) to inhibit the activation of the PAF receptor (PAFR) by the PAF C-16 ligand (PAF) is determined using the following cellular HTRF IP1 assay (IP1 Gq assay kit from Cisbio, Cat. no.: 62IP1APEJ) in assay buffer (1×HBSS, 20 mM Hepes, pH 7.4, 50 mM LiCl and containing 0.1% (w/v) BSA):
HEK293 cells overexpressing human PAFR (produced in-house) are seeded into a Poly-D-Lysine coated 384 well white cell culture microtiter assay plate with lid (15.000 cells per well). Subsequently, the plates are incubated over night at 37° C./5% CO2. On the next day, cells are being washed and subsequently, various concentrations of the test compounds (compounds in 100% DMSO; final concentration of DMSO in wells is 1%) are added to the assay plate via Echo 555 acoustic liquid handler. Plates are then incubated with lid for 90 minutes at 37° C./5% CO2. Thereafter, PAF ligand (Cayman Chemical Company, Item no.: 60900) is added at a final concentration of 11 nM. Plates are then incubated with lid for 60 minutes at 37° C./5% CO2. Then, 5 μl per well of Anti-IP1-Anti body-Cryptate solution and 5 μL per well of IP1-d2 solution are added to all wells of the plate and the plate is incubated for another 60 minutes light protected at room temperature. The emissions at 620 nm and 665 nm (Excitation wavelength: 320 nm) are measured using an Envision Reader (PerkinElmer).

[2] = aqueous solubility in buffer (from DMSO stock, 24 h shaking, LC-UV); conditions: pH 2.2, aqueous buffer, kinetic from dmso stock
Description: The aqueous solubility of the test compound is determined by comparing the amount dissolved in buffer to the amount in an ACN/water (1/1) solution. Starting from a 10 mM DMSO stock solution aliquots are diluted with ACN/water (1/1) or buffer, respectively. After 24 h of shaking, the solutions are filtrated and analyzed by LC-UV. The amount dissolved in buffer is compared to the amount in the ACN solution.
Solubility will usually be measured from 0.001 to 0.125 mg/mL at a DMSO concentration of 2.5%. If more than 90% of the compound is dissolved in buffer, the value is marked with “>”.

T1 sequence (P25105 whole entry): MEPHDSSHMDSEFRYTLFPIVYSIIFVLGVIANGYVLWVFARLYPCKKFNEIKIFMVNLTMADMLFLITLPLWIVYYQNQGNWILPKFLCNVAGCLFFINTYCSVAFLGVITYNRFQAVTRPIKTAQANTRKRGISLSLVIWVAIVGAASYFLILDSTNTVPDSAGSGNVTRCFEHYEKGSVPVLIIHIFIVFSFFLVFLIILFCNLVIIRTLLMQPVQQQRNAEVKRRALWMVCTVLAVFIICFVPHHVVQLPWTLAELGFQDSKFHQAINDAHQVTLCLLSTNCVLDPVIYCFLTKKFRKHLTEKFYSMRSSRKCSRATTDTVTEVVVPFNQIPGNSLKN

Compound	IC50 [1]	solubility at 24 h [2]
Cc1nnc2n1-c1sc3c(c1C(c1ccccc1Cl)NC2)CC(C(=O)N1CCOCC1)C3 (racemic) [Example 1, 9-(2-Chlorophenyl)-3-methyl-13-(morpholine-4-carbonyl)-16-thia-2,4,5,8-tetraazatetracyclo[8.6.0.0^2,6.0^11,15]-hexadeca-1(10),3,5,11(15)-tetraene]	102 nM	> 115 µg/mL
CCc1ccccc1C1NCc2nnc(C)n2-c2sc3c(c21)CC(C(=O)N1CCOCC1)C3 (racemic) [Example 53, 9-(2-Ethylphenyl)-3-methyl-13-(morpholine-4-carbonyl)-16-thia-2,4,5,8-tetraazatetracyclo[8.6.0.0^2,6.0^11,15]hexadeca-1(10),3,5,11(15)-tetraene]	297 nM	116 µg/mL (≈ 250 µM)
Cc1nnc2n1-c1sc3c(c1C(c1ccccc1F)NC2)CC(C(=O)N1CCOCC1)C3 (racemic) [Example 55, 9-(2-Fluorophenyl)-3-methyl-13-(morpholine-4-carbonyl)-16-thia-2,4,5,8-tetraazatetracyclo[8.6.0.0^2,6.0^11,15]hexadeca-1(10),3,5,11(15)-tetraene]	240 nM	> 112 µg/mL
Cc1nnc2n1-c1sc3c(c1C(c1ccccc1Br)NC2)CC(C(=O)N1CCOCC1)C3 (racemic) [Example 57, 9-(2-Bromophenyl)-3-methyl-13-(morpholine-4-carbonyl)-16-thia-2,4,5,8-tetraazatetracyclo[8.6.0.0^2,6.0^11,15]hexadeca-1(10),3,5,11(15)-tetraene]	161 nM	> 128 µg/mL
Cc1nnc2n1-c1sc3c(c1C(c1ccccc1C1CC1)NC2)CC(C(=O)N1CCOCC1)C3 (racemic) [Example 59, 9-(2-Cyclopropylphenyl)-3-methyl-13-(morpholine-4-carbonyl)-16-thia-2,4,5,8-tetraazatetracyclo[8.6.0.0^2,6.0^11,15]-hexadeca-1(10),3,5,11(15)-tetraene]	> 322 nM	> 119 µg/mL
Cc1nnc2n1-c1sc3c(c1C(c1ccccc1CO)NC2)CC(C(=O)N1CCOCC1)C3 (racemic) [Example 60, {2-[3-Methyl-13-(morpholine-4-carbonyl)-16-thia-2,4,5,8-tetraazatetracyclo[8.6.0.0^2,6.0^11,15]hexadeca-1(10),3,5,11(15)-tetraen-9-yl]phenyl}methanol]	> 322 nM	–
Cc1nnc2n1-c1sc3c(c1C(c1ccccc1O)NC2)CC(C(=O)N1CCOCC1)C3 (racemic) [Example 61, 2-[3-Methyl-13-(morpholine-4-carbonyl)-16-thia-2,4,5,8-tetraazatetracyclo[8.6.0.0^2,6.0^11,15]hexadeca-1(10),3,5,11(15)-tetraen-9-yl]phenol]	> 322 nM	> 113 µg/mL
CSc1ccccc1C1NCc2nnc(C)n2-c2sc3c(c21)C[C@H](C(=O)N1CCOCC1)C3 (mixture of isomers) [Example 79, 3-Methyl-9-[2-(methylsulfanyl)phenyl]-13-(morpholine-4-carbonyl)-16-thia-2,4,5,8-tetraazatetracyclo[8.6.0.0^2,6.0^11,15]hexadeca-1(10),3,5,11(15)-tetraene]	235 nM	> 119 µg/mL
CCCc1nnc2n1-c1sc3c(c1[C@@H](c1ccccc1Cl)NC2)CC(C(=O)N1CCOCC1)C3 (stereo in doubt) [Example 80, 9-(2-Chlorophenyl)-13-(morpholine-4-carbonyl)-3-propyl-16-thia-2,4,5,8-tetraazatetracyclo[8.6.0.0^2,6.0^11,15]hexadeca-1(10),3,5,11(15)-tetraene]	110 nM	> 104 µg/mL
Cc1nnc2n1-c1sc3c(c1[C@@H](c1ccccc1Cl)NC2)C[C@H](C(=O)N1CCOCC1)C3 [Example 3, (9S,13S)-9-(2-chlorophenyl)-3-methyl-13-(morpholine-4-carbonyl)-16-thia-2,4,5,8-tetraazatetracyclo[8.6.0.0^2,6.0^11,15]-hexadeca-1(10),3,5,11(15)-tetraene]	423 nM	> 118 µg/mL
Cc1nnc2n1-c1sc3c(c1[C@H](c1ccccc1Cl)NC2)C[C@H](C(=O)N1CCO[C@@H](C)C1)C3 [Example 4, (9R,13S)-9-(2-Chlorophenyl)-3-methyl-13-[(2S)-2-methylmorpholine-4-carbonyl]-16-thia-2,4,5,8-tetraazatetracyclo-[8.6.0.0^2,6.0^11,15]hexadeca-1(10)3,5,11(15)-tetraene]	6.8 nM	> 113 µg/mL
Cc1nnc2n1-c1sc3c(c1[C@H](c1ccccc1Cl)NC2)C[C@H](C(=O)N1C[C@@H](C)O[C@H](C)C1)C3 [Example 5]	8.2 nM	95 µg/mL (≈ 191 µM)
Cc1nnc2n1-c1sc3c(c1[C@H](c1ccccc1Cl)NC2)C[C@H](C(=O)N1C[C@H](C)O[C@@H](C)C1)C3 [Example 6]	11 nM	> 112 µg/mL
Cc1nnc2n1-c1sc3c(c1C(c1ccc(Cl)cc1)NC2)CC(C(=O)N1CCOCC1)C3 (stereo not drawn) [Example 52, 9-(4-Chlorophenyl)-3-methyl-13-(morpholine-4-carbonyl)-16-thia-2,4,5,8-tetraazatetracyclo[8.6.0.0^2,6.0^11,15]hexadeca-1(10),3,5,11(15)-tetraene]	283 nM	–
COc1ccccc1C1NCc2nnc(C)n2-c2sc3c(c21)CC(C(=O)N1CCOCC1)C3 (stereo not drawn) [Example 54, 9-(2-Methoxyphenyl)-3-methyl-13-(morpholine-4-carbonyl)-16-thia-2,4,5,8-tetraazatetracyclo[8.6.0.0^2,6.0^11,15]-hexadeca-1(10),3,5,11(15)-tetraene]	–	49 µg/mL (≈ 105 µM)
Cc1nnc2n1-c1sc3c(c1C(c1ccccc1C(F)(F)F)NC2)CC(C(=O)N1CCOCC1)C3 (stereo not drawn) [Example 56, 3-Methyl-13-(morpholine-4-carbonyl)-9-[2-(trifluoromethyl)phenyl]-16-thia-2,4,5,8-tetraazatetracyclo[8.6.0.0^2,6.0^11,15]-hexadeca-1(10),3,5,11(15)-tetraene]	–	> 126 µg/mL
Cc1nnc2n1-c1sc3c(c1C(c1cc(F)cc(F)c1)NC2)CC(C(=O)N1CCOCC1)C3 (stereo not drawn) [Example 58, 9-(3,5-Difluorophenyl)-3-methyl-13-(morpholine-4-carbonyl)-16-thia-2,4,5,8-tetraazatetracyclo[8.6.0.0^2,6.0^11,15]-hexadeca-1(10),3,5,11(15)-tetraene]	–	> 118 µg/mL
Cc1ccccc1[C@H]1NCc2nnc(C)n2-c2sc3c(c21)C[C@H](C(=O)N1CCOCC1)C3 [Example 63, (9R,13S)-3-Methyl-9-(2-methylphenyl)-13-(morpholine-4-carbonyl)-16-thia-2,4,5,8-tetraazatetracyclo[8.6.0.0^2,6.0^11,15]-hexadeca-1(10),3,5,11(15)-tetraene]	–	> 110 µg/mL
CCc1nnc2n1-c1sc3c(c1[C@H](c1ccccc1Cl)NC2)C[C@@H](C(=O)N1CCOCC1)C3 [Example 70]	> 1000 nM	–
CCc1nnc2n1-c1sc3c(c1[C@@H](c1ccccc1Cl)NC2)C[C@@H](C(=O)N1CCOCC1)C3 [Example 71]	> 999 nM	–
Cc1nnc2n1-c1sc3c(c1[C@@H](c1ccccc1)NC2)C[C@@H](C(=O)N1CCOCC1)C3 [Example 75]	> 568 nM	–
Cc1nnc2n1-c1sc3c(c1[C@H](c1ccccc1)NC2)C[C@H](C(=O)N1CCOCC1)C3 [Example 76]	140 nM	–
Cc1nnc2n1-c1sc3c(c1[C@H](c1ccccc1)NC2)C[C@@H](C(=O)N1CCOCC1)C3 [Example 77]	> 1000 nM	–
Cc1nnc2n1-c1sc3c(c1[C@@H](c1ccccc1)NC2)C[C@H](C(=O)N1CCOCC1)C3 [Example 78]	> 1000 nM	–
